Data reported in ChEMBL document CHEMBL5108016, “Design, synthesis and neurite outgrowth activity of novel ganglioside GM1 derivatives by remodeling of the fatty acid moiety” (Eur J Med Chem, 2022).
Values belong to the molecule of their own block, whether it stands above or below them. Calls of active or inactive are those of the source. The rule behind the calls is not given here.

Experiments:
[1] = Cytotoxicity against mouse Neuro2a cells assessed as inhibition of cell growth incubated for 24 hrs by MTT assay; type: toxicity, cell-based, N2a
N2a [2] = test: Induction of neurite outgrowth in mouse Neuro2a cells assessed as increase in neurite-number per cells at 25 uM incubated for 24 hrs; type: functional, cell-based
N2a [3] = test: Induction of neurite outgrowth in mouse Neuro2a cells assessed as increase in neurite-length per cells at 25 uM incubated for 24 hrs; type: functional, cell-based
N2a [4] = test: Induction of neurite outgrowth in mouse Neuro2a cells assessed as increase in percentage of neurite-bearing cells at 25 uM incubated for 24 hrs; type: functional, cell-based
Cortical neurone [5] = test: Induction of neurite outgrowth in C57BL/6 mouse Primary cortical neuron assessed as increase in total neurite length at 25 uM incubated for 24 hrs (reference value: 58.3 +/- 8.68 […]); type: functional
N2a [6] = test: Upregulation of ID11 mRNA expression in mouse Neuro2a cells by qRT-PCR analysis; type: functional, cell-based
N2a [7] = test: Upregulation of SQLE mRNA expression in mouse Neuro2a cells by qRT-PCR analysis; type: functional, cell-based
N2a [8] = test: Induction of cholesterol biosynthesis in mouse Neuro2a cells assessed as increase in total cholesterol level; type: functional, cell-based
N2a [9] = test: Upregulation of SREBP2 gene expression in mouse Neuro2a cells by STRING analysis; type: functional, cell-based
N2a [10] = test: Induction of neurite outgrowth in mouse Neuro2a cells assessed as increase in GAP43 protein expression at 25 uM incubated for 24 hrs by immunoblotting analysis; type: functional, cell-based
N2a [11] = test: Upregulation of MVD mRNA expression in mouse Neuro2a cells by qRT-PCR analysis; type: functional, cell-based
N2a [12] = test: Upregulation of LSS gene expression in mouse Neuro2a cells by STRING analysis; type: functional, cell-based
N2a [13] = test: Upregulation of NSDHL protein expression in mouse Neuro2a cells by parallel reaction monitoring analysis; type: functional, cell-based
N2a [14] = test: Upregulation of NSDHL mRNA expression in mouse Neuro2a cells by qRT-PCR analysis; type: functional, cell-based
N2a [15] = test: Upregulation of FDPS protein expression in mouse Neuro2a cells by parallel reaction monitoring analysis; type: functional, cell-based
N2a [16] = test: Upregulation of NSDHL gene expression in mouse Neuro2a cells by STRING analysis; type: functional, cell-based
N2a [17] = test: Internalization of ERBB4 in mouse Neuro2a cells assessed as retention of ERBB4 level in lipids raft of cells by immunoblot analysis; type: functional, cell-based
N2a [18] = test: Upregulation of HMGCS1 protein expression in mouse Neuro2a cells by parallel reaction monitoring analysis; type: functional, cell-based
N2a [19] = test: Upregulation of LSS protein expression in mouse Neuro2a cells by parallel reaction monitoring analysis; type: functional, cell-based
Cortical neurone [20] = test: Induction of neurite outgrowth in C57BL/6 mouse Primary cortical neuron assessed as change in neurite number per cell at 25 uM incubated for 24 hrs; type: functional, cell-based
N2a [21] = test: Upregulation of FDFT1 gene expression in mouse Neuro2a cells by STRING analysis; type: functional, cell-based
N2a [22] = test: Upregulation of LSS mRNA expression in mouse Neuro2a cells by qRT-PCR analysis; type: functional, cell-based
N2a [23] = test: Upregulation of DHCR7 protein expression in mouse Neuro2a cells by parallel reaction monitoring analysis; type: functional, cell-based
N2a [24] = test: Induction of cholesterol biosynthesis in mouse Neuro2a cells assessed as increase in total cholesteryl level; type: functional, cell-based
N2a [25] = test: Upregulation of SREBP2 mRNA expression in mouse Neuro2a cells by qRT-PCR analysis; type: functional, cell-based
[26] = biological target: T1, Sterol regulatory element-binding protein 2 (Mus musculus) (UniProt Q3U1N2); test: Activation of SREBP2 in mouse Neuro2a cells assessed as increase in ERBB4 protein expression by immunoblot analysis; type: cell-based; conditions: filed as activator
T1 sequence (whole entry): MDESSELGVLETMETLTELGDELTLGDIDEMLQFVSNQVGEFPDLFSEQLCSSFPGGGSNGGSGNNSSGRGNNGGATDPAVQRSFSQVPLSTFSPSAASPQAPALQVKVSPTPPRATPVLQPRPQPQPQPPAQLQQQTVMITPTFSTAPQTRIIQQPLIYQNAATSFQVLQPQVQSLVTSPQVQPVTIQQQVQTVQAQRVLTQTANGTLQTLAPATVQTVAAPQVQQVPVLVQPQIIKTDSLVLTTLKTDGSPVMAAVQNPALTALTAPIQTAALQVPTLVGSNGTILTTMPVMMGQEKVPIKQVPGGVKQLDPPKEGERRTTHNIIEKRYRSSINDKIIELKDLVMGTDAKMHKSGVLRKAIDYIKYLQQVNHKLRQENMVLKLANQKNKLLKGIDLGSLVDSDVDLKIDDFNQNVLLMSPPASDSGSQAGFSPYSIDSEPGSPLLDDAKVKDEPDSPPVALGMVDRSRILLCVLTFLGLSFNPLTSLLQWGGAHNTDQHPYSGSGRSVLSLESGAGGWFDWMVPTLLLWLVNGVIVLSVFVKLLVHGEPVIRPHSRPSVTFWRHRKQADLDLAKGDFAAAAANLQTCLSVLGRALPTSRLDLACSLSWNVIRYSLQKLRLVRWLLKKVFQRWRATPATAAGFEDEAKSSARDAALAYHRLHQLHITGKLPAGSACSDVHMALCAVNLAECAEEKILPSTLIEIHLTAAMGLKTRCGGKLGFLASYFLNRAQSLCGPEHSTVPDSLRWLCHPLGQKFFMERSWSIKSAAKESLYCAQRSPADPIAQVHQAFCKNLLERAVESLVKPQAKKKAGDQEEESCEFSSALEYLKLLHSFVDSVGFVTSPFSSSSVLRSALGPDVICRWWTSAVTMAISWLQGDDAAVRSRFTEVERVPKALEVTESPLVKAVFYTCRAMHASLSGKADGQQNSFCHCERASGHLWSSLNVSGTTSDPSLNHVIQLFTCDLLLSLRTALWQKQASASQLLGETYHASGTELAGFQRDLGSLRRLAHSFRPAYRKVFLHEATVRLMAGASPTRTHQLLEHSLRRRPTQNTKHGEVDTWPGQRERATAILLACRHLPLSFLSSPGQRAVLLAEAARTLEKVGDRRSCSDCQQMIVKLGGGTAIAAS

N2a [27] = test: Upregulation of CYP51 protein expression in mouse Neuro2a cells by parallel reaction monitoring analysis; type: functional, cell-based
N2a [28] = test: Upregulation of MVD gene expression in mouse Neuro2a cells by STRING analysis; type: functional, cell-based
N2a [29] = test: Upregulation of HMGCS mRNA expression in mouse Neuro2a cells by qRT-PCR analysis; type: functional, cell-based
N2a [30] = test: Upregulation of HMGCR mRNA expression in mouse Neuro2a cells by qRT-PCR analysis; type: functional, cell-based
N2a [31] = test: Upregulation of phosphorylated TrkA expression in mouse Neuro2a cells by immunoblot analysis; type: functional, cell-based
N2a [32] = test: Upregulation of HMGCS1 gene expression in mouse Neuro2a cells by STRING analysis; type: functional, cell-based
N2a [33] = test: Upregulation of CYP51 mRNA expression in mouse Neuro2a cells by qRT-PCR analysis; type: functional, cell-based
N2a [34] = test: Upregulation of ACAT2 gene expression in mouse Neuro2a cells by STRING analysis; type: functional, cell-based
N2a [35] = test: Upregulation of HMGCR protein expression in mouse Neuro2a cells by parallel reaction monitoring analysis; type: functional, cell-based
[36] = biological target: T1, Sterol regulatory element-binding protein 2 (Mus musculus); test: Activation of SREBP2 in mouse Neuro2a cells assessed as increase in mTOR protein expression by immunoblot analysis; type: cell-based; conditions: filed as activator
[37] = biological target: T1, Sterol regulatory element-binding protein 2 (Mus musculus); test: Activation of SREBP2 in mouse Neuro2a cells assessed as increase in phosphorylated ERBB4 protein expression by immunoblot analysis; type: cell-based; conditions: filed as activator
N2a [38] = test: Upregulation of FDPS gene expression in mouse Neuro2a cells by STRING analysis; type: functional, cell-based
N2a [39] = test: Upregulation of FDF1 mRNA expression in mouse Neuro2a cells by qRT-PCR analysis; type: functional, cell-based
N2a [40] = test: Upregulation of DHCR7 mRNA expression in mouse Neuro2a cells by qRT-PCR analysis; type: functional, cell-based
N2a [41] = test: Upregulation of FDPS mRNA expression in mouse Neuro2a cells by qRT-PCR analysis; type: functional, cell-based
N2a [42] = test: Upregulation of PMVK mRNA expression in mouse Neuro2a cells by qRT-PCR analysis; type: functional, cell-based
N2a [43] = test: Upregulation of MVK mRNA expression in mouse Neuro2a cells by qRT-PCR analysis; type: functional, cell-based
N2a [44] = test: Upregulation of CYP51 gene expression in mouse Neuro2a cells by STRING analysis; type: functional, cell-based

SMILES: CCCCCCCCCCCCCCC/C=C/[C@@H](O)[C@H](CO[C@@H]1O[C@H](CO)[C@@H](O[C@@H]2O[C@H](CO)[C@H](O[C@@H]3O[C@H](CO)[C@H](O)[C@H](O[C@@H]4O[C@H](CO)[C@H](O)[C@H](O)[C@H]4O)[C@H]3NC(C)=O)[C@H](O[C@]3(C(=O)O)C[C@H](O)[C@@H](NC(C)=O)[C@@H]([C@@H](O)[C@H](O)CO)O3)[C@H]2O)[C@H](O)[C@H]1O)NC(=O)CCCCCCCCCCCCCCCCC
IC50 at 24 h [1]: > 200 µM

SMILES: CCCCCC/C=C\CCCCCCCC(=O)N[C@@H](CO[C@@H]1O[C@H](CO)[C@@H](O[C@@H]2O[C@H](CO)[C@H](O[C@@H]3O[C@H](CO)[C@H](O)[C@H](O[C@@H]4O[C@H](CO)[C@H](O)[C@H](O)[C@H]4O)[C@H]3NC(C)=O)[C@H](O[C@]3(C(=O)O)C[C@H](O)[C@@H](NC(C)=O)[C@@H]([C@@H](O)[C@H](O)CO)O3)[C@H]2O)[C@H](O)[C@H]1O)[C@H](O)/C=C/CCCCCCCCCCCCC
Activity (N2a [2]): Active
Activity (N2a [3]): Active
Activity (N2a [4]): Active

SMILES: CCCC/C=C\CCCCCCCC(=O)N[C@@H](CO[C@@H]1O[C@H](CO)[C@@H](O[C@@H]2O[C@H](CO)[C@H](O[C@@H]3O[C@H](CO)[C@H](O)[C@H](O[C@@H]4O[C@H](CO)[C@H](O)[C@H](O)[C@H]4O)[C@H]3NC(C)=O)[C@H](O[C@]3(C(=O)O)C[C@H](O)[C@@H](NC(C)=O)[C@@H]([C@@H](O)[C@H](O)CO)O3)[C@H]2O)[C@H](O)[C@H]1O)[C@H](O)/C=C/CCCCCCCCCCCCC
IC50 at 24 h [1]: < 25 µM

Activity [26]: Active
Activity [36]: Active
Activity [37]: Active
SMILES: CCCCCCCCCCCCC/C=C/[C@@H](O)[C@H](CO[C@@H]1O[C@H](CO)[C@@H](O[C@@H]2O[C@H](CO)[C@H](O[C@@H]3O[C@H](CO)[C@H](O)[C@H](O[C@@H]4O[C@H](CO)[C@H](O)[C@H](O)[C@H]4O)[C@H]3NC(C)=O)[C@H](O[C@]3(C(=O)O)C[C@H](O)[C@@H](NC(C)=O)[C@@H]([C@@H](O)[C@H](O)CO)O3)[C@H]2O)[C@H](O)[C@H]1O)NC(=O)CCCCCCCCCCCCCCCCC
Activity (Cortical neurone [5]): 80.1 um
Activity (N2a [6]): Active
Activity (N2a [7]): Active
Activity (N2a [8]): Active
Activity (N2a [9]): Active
Activity (N2a [10]): Active
Activity (N2a [11]): Active
Activity (N2a [12]): Active
Activity (N2a [13]): Active
Activity (N2a [14]): Active
IC50 at 24 h [1]: > 200 µM
Activity (N2a [15]): Active
Activity (N2a [16]): Active
Activity (N2a [17]): Active
Activity (N2a [18]): Active
Activity (N2a [19]): Active
Activity (Cortical neurone [20]): Active
Activity (N2a [21]): Active
Activity (N2a [22]): Active
Activity (N2a [23]): Active
Activity (N2a [24]): Active
Activity (N2a [25]): Active
Activity (N2a [27]): Active
Activity (N2a [28]): Active
Activity (N2a [29]): Active
Activity (N2a [30]): Active
Activity (N2a [31]): Active
Activity (N2a [32]): Active
Activity (N2a [33]): Active
Activity (N2a [34]): Active
Activity (N2a [35]): Active
Activity (N2a [38]): Active
Activity (N2a [39]): Active
Activity (N2a [40]): Active
Activity (N2a [41]): Active
Activity (N2a [42]): Active
Activity (N2a [43]): Active
Activity (N2a [44]): Active
